Experimental data reported in ChEMBL document CHEMBL3352326, “Synthesis of 2,3-di- and 2,2,3-trisubstituted-3-methoxycarbonyl-γ-butyrolactones as potent antitumor agents” (Eur J Med Chem, 2015).

Legend:
Type in all cases: functional
[1] = Growth inhibition of human HCT116 cells at 10 uM after 72 hrs by MTS assay; conditions: HCT-116, 72 h, read-out: GI
MCF7 = assay: Growth inhibition of human MCF7 cells at 10 uM after 72 hrs by MTS assay; conditions: MCF7, 72 h, read-out: GI
KB = assay: Growth inhibition of human KB cells at 10 uM after 72 hrs by MTS assay; conditions: read-out: GI
[2] = Growth inhibition of human HL60 cells at 10 uM after 72 hrs by MTS assay; conditions: HL-60, 72 h, read-out: GI

Row | SMILES | inhibition of growth at 10 µM [1] | inhibition of growth at 10 µM (MCF7) | inhibition of growth at 10 µM (KB) | inhibition of growth at 10 µM [2]
1 | COC(=O)C1(Cc2ccccc2)CC(=O)OC12CCCCC2 (stereo unspecified) | 0% | 1% | 7% | 4%
2 | COC(=O)C1(Cc2ccccc2)CC(=O)OC1(C)c1cccc(C(F)(F)F)c1 (stereo unspecified) | 14% | 14% | 34% | 20%
3 | COC(=O)C1(Cc2cccc(OC)c2)CC(=O)OC1(C)c1ccccc1 (stereo unspecified) | 14% | 16% | 5% | 30%
4 | COC(=O)[C@@]1(Cc2ccc(OC)cc2)CC(=O)O[C@]1(C)c1ccccc1 | 56% | 59% | 98% | 68%
5 | COC(=O)C1(Cc2ccc(C(F)(F)F)cc2)CC(=O)OC1(C)c1ccccc1 (stereo unspecified) | 25% | 19% | 15% | 28%
6 | COC(=O)C1(Cc2ccccc2)CC(=O)OC1c1ccccc1 (stereo unspecified) | 0% | 0% | 18% | 22%
7 | COC(=O)c1ccc(CC2(C(=O)OC)CC(=O)OC2(C)c2ccccc2)cc1 (stereo unspecified) | 44% | 35% | 22% | 43%
8 | COC(=O)C1(Cc2ccc(C(F)(F)F)cc2)CC(=O)OC1c1ccccc1 (stereo unspecified) | 4% | 0% | 4% | 4%
9 | COC(=O)C1(Cc2ccccc2C(F)(F)F)CC(=O)OC1(C)c1ccccc1 (stereo unspecified) | 18% | 6% | 0% | 0%
10 | COC(=O)C1(Cc2cccc(C(F)(F)F)c2)CC(=O)OC1c1ccccc1 (stereo unspecified) | 14% | 11% | 39% | 34%
11 | COC(=O)C1(Cc2ccc(OC)cc2)CC(=O)OC1(C)c1cccc(C(F)(F)F)c1 (stereo unspecified) | 30% | 46% | 38% | 52%
12 | COC(=O)C1(Cc2ccc3c(c2)OCO3)CC(=O)OC1c1cc(OC)c(OC)c(OC)c1 (stereo unspecified) | 22% | 8% | 0% | 10%
13 | COC(=O)c1ccc(CC2(C(=O)OC)CC(=O)OC2c2ccccc2)cc1 (stereo unspecified) | 0% | 0% | 12% | 19%
14 | COC(=O)C1(Cc2ccc(OC)cc2)CC(=O)OC1(c1ccccc1)C(F)(F)F (stereo unspecified) | 20% | 8% | 56% | 64%
15 | COC(=O)C1(Cc2ccc(OC)cc2)CC(=O)OC1c1cc(OC)c(OC)c(OC)c1 (stereo unspecified) | 24% | 27% | 16% | 32%
16 | COC(=O)C1(Cc2cccc(OC)c2)CC(=O)OC1c1cc(OC)c(OC)c(OC)c1 (stereo unspecified) | 20% | 13% | 0% | 10%
17 | COC(=O)C1(Cc2ccccc2)CC(=O)OC1(C)c1cc(OC)c(OC)c(OC)c1 (stereo unspecified) | 0% | 2% | 0% | 7%
18 | COC(=O)C1(Cc2cc(OC)c(OC)c(OC)c2)CC(=O)OC1c1cc(OC)c(OC)c(OC)c1 (stereo unspecified) | 13% | 3% | 0% | 0%
19 | COC(=O)C1(Cc2cc(OC)c(OC)c(OC)c2)CC(=O)OC1c1ccccc1 (stereo unspecified) | 16% | 1% | 0% | 7%
